According to ChEMBL document CHEMBL5465560, “Selectivity Literature for EUbOPEN Chemogenomic Library” (2024):
Values belong to the compound of their own block, whether it stands above or below them.

Key:
D(2) dopamine receptor [1] = biological target: T1, D(2) dopamine receptor (Homo sapiens, UniProt P14416); test: (§1) Selectivity interaction (CEREP panel (binding assay, receptors and ion channels)) EUB0001623a DRD2; conditions: at 1 µM
[2] = biological target: Cyclin-dependent kinase 1/cyclin B (Homo sapiens) (UniProt P06493+P14635+Q8WWL7+O95067); test: Selectivity interaction (Kinase panel (literature)) EUB0001623a CDK1; type: protein-complex assay; conditions: at 1 µM
[3] = biological target: Cyclin-dependent kinase 9 (Homo sapiens, UniProt P50750); test: Selectivity interaction (Reporter displacement assay) EUB0001623a CDK9
Chain of Cyclin-dependent kinase 9 (P50750 whole entry): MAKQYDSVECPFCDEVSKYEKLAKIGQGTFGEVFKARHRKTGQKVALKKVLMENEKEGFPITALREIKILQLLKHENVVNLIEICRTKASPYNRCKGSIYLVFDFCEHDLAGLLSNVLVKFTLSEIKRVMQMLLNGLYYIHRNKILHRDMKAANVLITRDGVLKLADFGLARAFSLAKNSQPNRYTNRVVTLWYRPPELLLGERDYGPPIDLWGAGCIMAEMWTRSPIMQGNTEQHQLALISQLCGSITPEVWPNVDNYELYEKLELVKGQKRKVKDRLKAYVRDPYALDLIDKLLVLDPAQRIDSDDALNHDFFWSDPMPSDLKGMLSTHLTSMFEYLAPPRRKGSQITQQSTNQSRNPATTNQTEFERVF

[4] = biological target: Adenosine receptor A1 (Homo sapiens) (UniProt P30542); test: Selectivity interaction (CEREP panel (binding assay, receptors and ion channels)) EUB0001623a ADORA1; conditions: at 1 µM
[5] = biological target: Cyclin-dependent kinase 2/cyclin E (Homo sapiens) (UniProt P24864+P24941+O96020); conditions: at 1 µM
[6] = biological target: CDK7/Cyclin H/MNAT1 (Homo sapiens) (UniProt P51946+P50613+P51948); test: Selectivity interaction (Kinase panel (literature)) EUB0001623a CDK7; type: protein-complex assay; conditions: at 1 µM
[7] = biological target: Ribosomal protein S6 kinase beta-1 (Homo sapiens, UniProt P23443); test: Selectivity interaction (Kinase panel (literature)) EUB0001623a RPS6KB1; conditions: at 1 µM
[8] = biological target: Cyclin-dependent kinase 3 (Homo sapiens) (UniProt Q00526); conditions: at 1 µM
[9] = biological target: CDK6/cyclin D3 (Homo sapiens) (UniProt P30281+Q00534); test: Selectivity interaction (Kinase panel (literature)) EUB0001623a CDK6; type: protein-complex assay; conditions: at 1 µM
[10] = biological target: T2, Receptor-type tyrosine-protein kinase FLT3 (Homo sapiens, UniProt P36888); test: Selectivity interaction (Kinase panel (literature)) EUB0001623a FLT3
T2 sequence (P36888 whole entry): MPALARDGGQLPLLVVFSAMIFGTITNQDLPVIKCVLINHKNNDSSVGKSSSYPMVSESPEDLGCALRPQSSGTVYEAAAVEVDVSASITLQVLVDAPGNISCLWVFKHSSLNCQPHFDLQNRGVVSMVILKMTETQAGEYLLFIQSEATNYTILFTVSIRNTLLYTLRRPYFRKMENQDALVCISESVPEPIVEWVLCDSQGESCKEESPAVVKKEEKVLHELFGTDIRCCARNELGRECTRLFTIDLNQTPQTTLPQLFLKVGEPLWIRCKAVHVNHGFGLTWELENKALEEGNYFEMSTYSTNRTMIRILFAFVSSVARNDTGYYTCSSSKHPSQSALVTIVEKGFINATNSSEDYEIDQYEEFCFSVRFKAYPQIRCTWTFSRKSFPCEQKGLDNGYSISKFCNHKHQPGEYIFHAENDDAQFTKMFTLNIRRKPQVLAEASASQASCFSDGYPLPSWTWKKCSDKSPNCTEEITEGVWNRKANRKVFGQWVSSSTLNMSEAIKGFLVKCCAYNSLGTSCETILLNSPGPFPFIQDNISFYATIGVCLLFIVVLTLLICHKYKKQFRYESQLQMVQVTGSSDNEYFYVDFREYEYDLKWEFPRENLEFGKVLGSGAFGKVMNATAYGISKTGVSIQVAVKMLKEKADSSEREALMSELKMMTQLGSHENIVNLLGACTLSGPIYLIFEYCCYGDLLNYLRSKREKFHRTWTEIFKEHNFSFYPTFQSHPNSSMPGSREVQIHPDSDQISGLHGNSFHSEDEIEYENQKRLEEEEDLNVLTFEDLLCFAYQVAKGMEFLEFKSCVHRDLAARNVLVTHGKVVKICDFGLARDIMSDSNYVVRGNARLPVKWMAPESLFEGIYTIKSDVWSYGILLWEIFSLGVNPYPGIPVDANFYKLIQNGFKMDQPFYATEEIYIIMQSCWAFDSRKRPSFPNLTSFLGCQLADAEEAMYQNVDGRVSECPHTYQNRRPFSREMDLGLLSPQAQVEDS

[11] = biological target: Cyclin-dependent kinase 8 (Homo sapiens, UniProt P49336); test: Selectivity interaction (Reporter displacement assay) EUB0001623a CDK8
[12] = biological target: CDK5/Cyclin D3 (Homo sapiens) (UniProt Q00535+P30281); test: (§2) Selectivity interaction (Kinase panel (literature)) EUB0001623a CDK5; type: protein-complex assay; conditions: at 1 µM
[13] = biological target: Cyclin-dependent kinase 5 (Homo sapiens, UniProt Q00535); test: as §2; conditions: at 1 µM
[14] = biological target: Cyclin-dependent kinase 2/cyclin A (Homo sapiens) (UniProt P24941+P20248+P78396); test: Selectivity interaction (Kinase panel (literature)) EUB0001623a CDK2; type: protein-complex assay; conditions: at 1 µM
[15] = biological target: CDK9/cyclin T1 (Homo sapiens) (UniProt O60563+P50750); test: Selectivity interaction (Kinase panel (literature)) EUB0001623a CDK9; type: protein-complex assay; conditions: at 1 µM
[16] = biological target: T3, Serine/threonine-protein kinase Sgk1 (Homo sapiens) (UniProt O00141); test: Selectivity interaction (Kinase panel (literature)) EUB0001623a SGK1; conditions: at 1 µM
T3 sequence (whole entry): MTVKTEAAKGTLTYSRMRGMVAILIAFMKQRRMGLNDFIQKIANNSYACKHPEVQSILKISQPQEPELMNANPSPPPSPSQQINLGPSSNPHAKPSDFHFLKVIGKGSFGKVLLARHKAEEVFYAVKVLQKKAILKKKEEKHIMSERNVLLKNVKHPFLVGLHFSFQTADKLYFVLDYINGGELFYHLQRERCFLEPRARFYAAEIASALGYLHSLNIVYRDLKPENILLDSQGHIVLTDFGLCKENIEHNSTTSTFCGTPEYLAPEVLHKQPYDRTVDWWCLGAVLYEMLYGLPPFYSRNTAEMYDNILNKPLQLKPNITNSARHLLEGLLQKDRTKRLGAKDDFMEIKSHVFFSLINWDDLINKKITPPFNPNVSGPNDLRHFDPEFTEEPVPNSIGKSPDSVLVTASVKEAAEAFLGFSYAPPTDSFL

D(2) dopamine receptor [17] = biological target: T1, D(2) dopamine receptor; test: as §1
[18] = biological target: NT-3 growth factor receptor (Homo sapiens, UniProt Q16288); test: Selectivity interaction (Kinase panel (literature)) EUB0001623a NTRK3
Chain of NT-3 growth factor receptor (Q16288 whole entry): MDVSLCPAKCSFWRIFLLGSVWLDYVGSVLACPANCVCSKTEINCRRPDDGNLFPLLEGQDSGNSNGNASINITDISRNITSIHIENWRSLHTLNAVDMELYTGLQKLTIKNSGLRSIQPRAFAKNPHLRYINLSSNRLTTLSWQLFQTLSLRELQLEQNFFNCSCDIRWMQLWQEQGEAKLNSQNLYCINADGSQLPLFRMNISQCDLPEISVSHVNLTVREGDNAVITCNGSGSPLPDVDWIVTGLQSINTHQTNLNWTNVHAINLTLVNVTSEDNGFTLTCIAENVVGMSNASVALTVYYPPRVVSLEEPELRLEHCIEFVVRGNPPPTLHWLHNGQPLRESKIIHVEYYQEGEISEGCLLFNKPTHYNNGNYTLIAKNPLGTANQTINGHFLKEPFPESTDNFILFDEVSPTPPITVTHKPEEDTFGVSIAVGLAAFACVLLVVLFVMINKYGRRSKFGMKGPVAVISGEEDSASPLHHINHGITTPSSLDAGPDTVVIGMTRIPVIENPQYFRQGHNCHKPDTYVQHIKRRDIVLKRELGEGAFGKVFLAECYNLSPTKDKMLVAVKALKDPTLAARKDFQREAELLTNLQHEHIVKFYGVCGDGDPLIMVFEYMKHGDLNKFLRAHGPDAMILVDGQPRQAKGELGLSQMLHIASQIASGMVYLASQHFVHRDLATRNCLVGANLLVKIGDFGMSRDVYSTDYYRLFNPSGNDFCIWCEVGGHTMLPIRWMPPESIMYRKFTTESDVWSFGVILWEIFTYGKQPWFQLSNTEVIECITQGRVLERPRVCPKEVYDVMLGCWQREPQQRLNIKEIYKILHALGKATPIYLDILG

[19] = biological target: T4, Cyclin-dependent kinase 12 (Homo sapiens, UniProt Q9NYV4); test: Selectivity interaction (Western blot assay (pull-down blockage of CDK7-cyclin H using lysates from HAP1 cells)) EUB0001635a CDK12; type: cell-based
T4 sequence (Q9NYV4 whole entry): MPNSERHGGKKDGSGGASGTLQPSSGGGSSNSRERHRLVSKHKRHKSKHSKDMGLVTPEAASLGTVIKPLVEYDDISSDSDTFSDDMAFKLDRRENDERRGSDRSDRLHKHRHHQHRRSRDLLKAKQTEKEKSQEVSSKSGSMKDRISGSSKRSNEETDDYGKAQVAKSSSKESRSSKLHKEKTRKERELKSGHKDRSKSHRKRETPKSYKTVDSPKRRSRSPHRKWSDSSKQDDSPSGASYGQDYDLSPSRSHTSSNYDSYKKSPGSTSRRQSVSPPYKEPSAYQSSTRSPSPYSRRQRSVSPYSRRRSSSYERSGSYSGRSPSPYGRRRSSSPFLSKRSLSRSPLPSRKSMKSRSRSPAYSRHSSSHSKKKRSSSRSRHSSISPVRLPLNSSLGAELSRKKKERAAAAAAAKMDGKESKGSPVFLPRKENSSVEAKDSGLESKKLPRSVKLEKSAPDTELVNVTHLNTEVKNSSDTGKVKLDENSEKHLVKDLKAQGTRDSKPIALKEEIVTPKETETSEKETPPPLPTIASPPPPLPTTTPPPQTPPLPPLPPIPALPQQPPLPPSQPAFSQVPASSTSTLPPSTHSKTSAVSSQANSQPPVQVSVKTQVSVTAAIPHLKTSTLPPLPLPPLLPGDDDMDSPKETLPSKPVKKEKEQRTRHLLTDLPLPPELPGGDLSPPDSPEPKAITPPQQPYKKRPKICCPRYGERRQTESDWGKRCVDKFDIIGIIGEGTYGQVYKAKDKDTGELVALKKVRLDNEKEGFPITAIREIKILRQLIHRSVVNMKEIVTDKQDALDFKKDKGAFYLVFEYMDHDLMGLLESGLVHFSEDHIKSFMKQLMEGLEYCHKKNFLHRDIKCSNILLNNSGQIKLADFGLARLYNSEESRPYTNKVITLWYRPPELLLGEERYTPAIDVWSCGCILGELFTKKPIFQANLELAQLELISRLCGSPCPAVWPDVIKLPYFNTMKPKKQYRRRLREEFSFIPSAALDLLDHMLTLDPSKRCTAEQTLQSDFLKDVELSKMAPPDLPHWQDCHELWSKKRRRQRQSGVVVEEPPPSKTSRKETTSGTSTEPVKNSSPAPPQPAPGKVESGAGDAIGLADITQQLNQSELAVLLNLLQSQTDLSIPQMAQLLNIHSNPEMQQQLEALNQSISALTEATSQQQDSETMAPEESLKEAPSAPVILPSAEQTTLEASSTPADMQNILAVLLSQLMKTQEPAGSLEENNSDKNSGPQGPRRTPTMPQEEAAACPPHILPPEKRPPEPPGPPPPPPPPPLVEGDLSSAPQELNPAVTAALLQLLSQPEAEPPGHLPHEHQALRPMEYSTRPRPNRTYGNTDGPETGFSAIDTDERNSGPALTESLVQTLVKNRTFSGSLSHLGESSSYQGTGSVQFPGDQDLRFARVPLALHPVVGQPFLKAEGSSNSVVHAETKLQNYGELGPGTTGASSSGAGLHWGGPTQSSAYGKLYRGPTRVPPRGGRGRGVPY

[20] = biological target: T5, Cyclin-dependent kinase 13 (Homo sapiens, UniProt Q14004); test: Selectivity interaction (Radioactive kinase activity assay) EUB0001635a CDK13
T5 sequence (Q14004 whole entry): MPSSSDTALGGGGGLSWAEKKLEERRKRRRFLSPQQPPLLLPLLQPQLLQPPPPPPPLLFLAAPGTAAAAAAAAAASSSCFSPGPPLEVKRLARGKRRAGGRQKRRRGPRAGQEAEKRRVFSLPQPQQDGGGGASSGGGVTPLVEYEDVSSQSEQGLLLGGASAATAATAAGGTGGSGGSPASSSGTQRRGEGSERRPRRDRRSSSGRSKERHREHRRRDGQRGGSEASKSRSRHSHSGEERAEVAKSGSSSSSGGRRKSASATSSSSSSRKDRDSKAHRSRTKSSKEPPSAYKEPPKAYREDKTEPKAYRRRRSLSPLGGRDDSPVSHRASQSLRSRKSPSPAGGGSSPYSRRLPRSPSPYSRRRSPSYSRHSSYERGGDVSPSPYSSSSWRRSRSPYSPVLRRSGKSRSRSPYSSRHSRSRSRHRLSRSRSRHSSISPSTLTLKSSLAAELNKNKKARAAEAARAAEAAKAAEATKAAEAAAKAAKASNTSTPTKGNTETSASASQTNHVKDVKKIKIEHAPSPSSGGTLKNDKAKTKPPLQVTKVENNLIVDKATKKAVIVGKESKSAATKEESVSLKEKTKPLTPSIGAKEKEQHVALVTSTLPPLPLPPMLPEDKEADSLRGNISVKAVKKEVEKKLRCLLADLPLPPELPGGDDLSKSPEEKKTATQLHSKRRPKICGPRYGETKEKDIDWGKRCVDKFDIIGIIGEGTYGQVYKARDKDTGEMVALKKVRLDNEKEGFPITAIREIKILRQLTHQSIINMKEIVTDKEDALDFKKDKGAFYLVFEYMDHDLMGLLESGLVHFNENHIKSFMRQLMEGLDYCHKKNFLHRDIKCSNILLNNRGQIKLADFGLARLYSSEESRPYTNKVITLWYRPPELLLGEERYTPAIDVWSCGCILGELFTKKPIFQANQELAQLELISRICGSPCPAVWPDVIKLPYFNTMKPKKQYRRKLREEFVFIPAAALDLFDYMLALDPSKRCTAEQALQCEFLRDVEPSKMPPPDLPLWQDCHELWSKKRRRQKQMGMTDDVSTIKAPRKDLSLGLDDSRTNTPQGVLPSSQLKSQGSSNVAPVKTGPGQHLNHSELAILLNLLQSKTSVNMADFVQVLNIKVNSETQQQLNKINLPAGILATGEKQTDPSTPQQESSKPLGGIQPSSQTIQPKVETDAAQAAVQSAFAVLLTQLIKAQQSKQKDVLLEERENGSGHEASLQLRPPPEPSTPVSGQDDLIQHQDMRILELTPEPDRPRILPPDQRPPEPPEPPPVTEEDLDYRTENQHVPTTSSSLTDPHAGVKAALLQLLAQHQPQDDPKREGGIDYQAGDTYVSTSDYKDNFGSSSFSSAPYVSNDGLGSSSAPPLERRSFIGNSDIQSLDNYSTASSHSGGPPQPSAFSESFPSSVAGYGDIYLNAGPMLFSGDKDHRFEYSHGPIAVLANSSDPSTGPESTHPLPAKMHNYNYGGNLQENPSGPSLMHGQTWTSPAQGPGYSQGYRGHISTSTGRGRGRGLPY

[21] = biological target: T6, Cyclin-dependent kinase 7 (Homo sapiens, UniProt P50613); test: Selectivity interaction (Western blot assay (pull-down blockage of CDK7-cyclin H using lysates from HAP1 cells)) EUB0001635a CDK7; type: cell-based
T6 sequence (P50613 whole entry): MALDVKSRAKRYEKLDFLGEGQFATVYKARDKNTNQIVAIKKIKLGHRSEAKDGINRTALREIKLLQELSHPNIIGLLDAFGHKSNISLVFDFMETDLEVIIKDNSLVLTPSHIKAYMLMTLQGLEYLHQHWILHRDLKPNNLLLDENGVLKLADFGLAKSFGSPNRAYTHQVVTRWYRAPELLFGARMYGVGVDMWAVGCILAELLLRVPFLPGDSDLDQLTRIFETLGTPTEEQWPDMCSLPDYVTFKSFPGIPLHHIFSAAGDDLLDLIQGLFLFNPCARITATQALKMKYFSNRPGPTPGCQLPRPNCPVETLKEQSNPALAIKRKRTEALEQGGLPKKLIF

[22] = biological target: T4, Cyclin-dependent kinase 12; test: Selectivity interaction (Radioactive kinase activity assay) EUB0001635a CDK12
[23] = biological target: T6, Cyclin-dependent kinase 7; test: Selectivity interaction (Western blot assay (pull-down blockage of CDK7-cyclin H using lysates from Jurkat cells)) EUB0001635a CDK7; type: subcellular, lysate
[24] = biological target: T5, Cyclin-dependent kinase 13; test: Selectivity interaction (Western blot assay (pull-down blockage of CDK7-cyclin H using lysates from HAP1 cells)) EUB0001635a CDK13; type: cell-based
[25] = biological target: T6, Cyclin-dependent kinase 7; test: Selectivity interaction (Electrophoretic mobility shift assay) EUB0001635a CDK7
[26] = biological target: T4, Cyclin-dependent kinase 12; test: Selectivity interaction (Western blot assay (pull-down blockage of CDK7-cyclin H using lysates from Jurkat cells)) EUB0001635a CDK12; type: subcellular, lysate
[27] = biological target: T5, Cyclin-dependent kinase 13; test: Selectivity interaction (Western blot assay (pull-down blockage of CDK7-cyclin H using lysates from Jurkat cells)) EUB0001635a CDK13; type: subcellular, lysate
[28] = biological target: Cyclin-dependent kinase 7 (Homo sapiens, UniProt P50613, C312S); test: Selectivity interaction (Radioactive kinase assays (from cellular C312S flag-tagged CDK7 immunoprecipitated in HeLa cells)) EUB0001635a CDK7; type: cell-based

T1 sequence (P14416 whole entry): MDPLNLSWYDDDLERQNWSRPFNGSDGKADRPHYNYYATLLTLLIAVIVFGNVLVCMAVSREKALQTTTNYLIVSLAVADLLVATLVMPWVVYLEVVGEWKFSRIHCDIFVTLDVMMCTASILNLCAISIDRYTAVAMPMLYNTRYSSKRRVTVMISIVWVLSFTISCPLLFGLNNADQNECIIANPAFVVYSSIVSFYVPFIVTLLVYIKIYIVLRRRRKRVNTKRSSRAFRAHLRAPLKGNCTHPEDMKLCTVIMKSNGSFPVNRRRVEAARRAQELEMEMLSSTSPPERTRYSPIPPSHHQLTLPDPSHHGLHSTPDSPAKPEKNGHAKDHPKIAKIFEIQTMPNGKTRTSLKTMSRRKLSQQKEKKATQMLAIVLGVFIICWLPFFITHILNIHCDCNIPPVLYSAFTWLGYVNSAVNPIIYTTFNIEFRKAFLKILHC

% of inhibition (D(2) dopamine receptor [1]): 54% | % of inhibition [2]: 2% | IC50 [3]: 4 nM | % of inhibition [4]: 48% | % of inhibition [5]: 18% | % of inhibition [6]: 7% | % of inhibition [7]: 47% | % of inhibition [8]: 2% | % of inhibition [9]: 12% | IC50 [10]: > 30000 nM | IC50 [11]: 4 nM | % of inhibition [12]: -1% | % of inhibition [13]: -1% | % of inhibition [14]: -7% | % of inhibition [15]: 13% | % of inhibition [16]: 39% | IC50 (D(2) dopamine receptor [17]): 8500 nM | IC50 [18]: > 30000 nM
SMILES: Cc1n[nH]c2ncc(C(=O)N3CCC[C@H]3c3ccc(Cl)cc3)cc12

IC50 [19]: > 1000 nM | IC50 [20]: > 10000 nM | IC50 [21]: > 30000 nM | IC50 [22]: > 10000 nM | IC50 [23]: > 30000 nM | IC50 [24]: > 1000 nM | Ki [25]: 1.9 nM | IC50 [26]: > 1000 nM | IC50 [27]: > 1000 nM | IC50 [28]: > 10000 nM
SMILES: C=CC(=O)Nc1ccc(C(=O)Nc2n[nH]c3c2CN(C(=O)N[C@H](CN(C)C)c2ccccc2)C3(C)C)cc1
